Test results reported in patent publication EP3838286B1, “ANTIMICROBIAL PEPTIDE FROM POLISTES GALLICUS VENOM AND ITS ANALOGS” (Latoxan, priority 2019, dated 2021).
In brackets after ≈: the same amount, converted by molar mass. Where two headings read alike, the source gives them in different places. Square brackets hold non-standard residues; d marks the D form. Peptide text beside a SMILES is read from it.

Assays:
M. smegmatis = settings: 72 h
[1] = test system: B. subtilis (Nisin-resistant)
MiaPaCa-2 = test: Antitumor / antiproliferative activity (resazurin); format: cell-based, human; settings: pancreas cancer cells; 5,000 cells/well; 48 h; read-out: IC50 antiproliferative effect MiaPaCa-2
Experimental: (§1) Human cancer cell lines (Mia PaCa-2 (CRL-1420), PC-3 (CRL-1435), MDA-MB-231 (HTB-26)) and normal lung fibrobasts (BEAS-2B (ATCC CRL-9609) and IMR-90 (ATCC CCL-186)) were obtained from American Type Culture Collection (ATCC). HUVEC cells were obtained from Sigma Aldrich and were grown in defined all-in-one ready to use endothelial cell growth medium (Sigma Aldrich). Other cells were cultured in Dulbecco's modified Eagle's medium (DMEM, Gibco Life Technologies) supplemented with 10% heat-inactivated fetal calf serum (FCS, Lonza) at 37 °C in an incubator containing 5% CO2. Cells were sub-cultured in new media every 3-4 days. Antiproliferative / antitumor effects of the peptides were measured as previously described (Borie et al., Eur J Med Chem. 2018;148:306-313). Briefly, cells were detached from growing flask using trypsin, cells were counted and seeded in 96 well-plates in the growth media at an initial cell density of 5000 cells/well. Cells were left for 4 h to attach to the wells. Cells were then treated with increasing concentrations of peptides diluted in culture media. After 48 h incubation at 37 °C in a 5% CO2 incubator, wells were emptied and cell number was evaluated using Resazurin based in vitro toxicity assay kit (from Sigma-Aldrich) following manufacturer's instructions. Briefly, Resazurin stock solution was diluted 1:10 in sterile PBS containing calcium and magnesium (PBS, pH 7.4) and empty wells were filled with 100 µL of the diluted solution. After 4 h incubation at 37 °C, fluorescence intensity was measured using microplate reader (Synergy Mx, Biotek) with an excitation wavelength of 530 nm and an emission wavelength of 590 nm. The fluorescence values were normalized by the controls (buffer treated cells) and expressed as per-cent viability. The IC50 values of peptides on cell division / proliferation (i.e. the concentration of derivative causing a reduction of 50% of cell division) were determined using GraphPad ® Prism 7 software. t-Test and two way ANOVA analyses were used to address the significant differences between mean values with significance set at p < 0.05.

PC-3 = test: Antitumor / antiproliferative activity (resazurin); format: cell-based, human; settings: prostate cancer cells; 5,000 cells/well; 48 h; read-out: IC50 antiproliferative effect PC-3
Experimental: as §1

MDA-MB-231 = test: Antitumor / antiproliferative activity (resazurin); format: cell-based, human; settings: breast cancer cells; 5,000 cells/well; 48 h; read-out: IC50 antiproliferative effect MDA-MB-231
Experimental: as §1

Pseudomonas aeruginosa = test: Stability of the peptides to proteases and human serum (MIC of digested peptides); format: in vitro ADME; settings: for MIC (µM) Serum4h: after 4 h at 37°C in human serum; for MIC (µM) Serum4h / MIC (µM) Chymotrypsin / MIC (µM) Pepsin / MIC (µM) Trypsin / MIC (µM) Serum24h / MIC (µM) Control: against Pseudomonas aeruginosa; for MIC (µM) Chymotrypsin: after 4 h at 37°C with chymotrypsin; for MIC (µM) Chymotrypsin / MIC (µM) Trypsin: pH 7; for MIC (µM) Pepsin: after 4 h at 37°C with pepsin, pH2; for MIC (µM) Trypsin: after 4 h at 37°C with trypsin; for MIC (µM) Serum24h: after 24 h at 37°C in human serum; for stability to proteases and human serum: pepsin, trypsin, chymotrypsin; for MIC (µM) Control: peptide incubated in PBS, not treated with proteases
Experimental: In order to evaluate the stability of the peptides to condition they will face in vivo, their resistance to proteases and human serum was evaluated (Oyama et al., 2017 Biofilms Microbiomes, Dec 1;3:33). Briefly, one volume of peptides (at 1 mM) was diluted in one volume of proteases (Pepsin, Trypsin, Chymotrypsin, Papain all from Sigma Aldrich and diluted at 2 mg/ml in HCl 10 mM pH2 for Pepsin, PBS pH 7 for Trypsin and Chymotrysin and PBS pH 6 for Papain) or human serum (Sigma Aldrich H4522). Peptides incubated in the same conditions in PBS were used as controls. After 4 h (for proteases) and 4 or 24 h (for human serum) of incubation at 37°C, PMSF was added to the reaction mixture at a final concentration of 100 µM to stop the digestion. MIC of the digested peptides were then determined as explained above.

[2] = Cytotoxicity assay (resazurin); format: cell-based; settings: human
Experimental: Normal human cells used were BEAS-2B (ATCC CRL-9609), IMR-90 (ATCC CCL-186) and Human Umbilical Vein Endothelial Cells (HUVEC) (from Sigma-Aldrich) corresponding respectively to human normal lung epithelial, normal lung fibroblast cells and human normal endothelial cells. All cells except HUVEC cells were cultured in Dulbecco's modified essential medium (DMEM) supplemented with 10% fetal calf serum (FCS), 1% L-glutamine and 1% antibiotics (all from Invitrogen). HUVEC cells were cultured in specific endothelial media (from Sigma Aldrich). Cells were seeded onto […] maintained in a 5% CO2 incubator at 37 °C. Cells grown on 25 cm^2 flasks were detached using trypsin-EDTA solution (from Thermofisher), counted using Mallassez counting chamber and seeded into 96-well cell culture plates (Greiner bio-one) at approximately 10,000 cells per well. The cells were left to grow for 48-72 h at 37 °C in a 5% CO2 incubator until they reached confluence. Plates were then aspirated and increasing concentrations of peptides diluted in culture media were added to the cells for 48 h at 37 °C in a 5% CO2 incubator. At the end of the incubation, wells were emptied and cell viability was evaluated using Resazurin based in vitro toxicity assay kit (from Sigma-Aldrich) following manufacturer's instructions. Briefly, Resazurin stock solution was diluted 1:10 in sterile PBS containing calcium and magnesium (PBS, pH 7.4) and empty wells were filled with 100 µL of the diluted solution. After 4 h incubation at 37 °C, fluorescence intensity was measured using microplate reader (Synergy Mx, Biotek) with an excitation wavelength of 530 nm and an emission wavelength of 590 nm. The fluorescence values were normalized by the controls (buffer treated cells) and expressed as percent viability. The IC50 values of peptides on cell viability (i.e. the concentration of derivative causing a reduction of 50% of cell viability) were determined using GraphPad® Prism 7 software. t-Test and two way ANOVA analyses were used to address the significant differences between mean values with significance set at p < 0.05.

[3] = BEAS-2B normal lung epithelial cells, normal lung epithelium, read-out: Cytotoxicity IC50 (µM) BEAS
[4] = HUVEC (human umbilical vein endothelial cells), normal endothelium, read-out: Cytotoxicity IC50 (µM) HUVEC
[5] = IMR-90 normal lung fibroblast cells, read-out: Cytotoxicity IC50 (µM) IMR90

Compound: CC[C@@H](C)[C@@H](N)C(=O)N[C@H](CC(C)C)C(=O)N[C@H](CCCCN)C(=O)N[C@H](C)C(=O)N[C@@H](C(=O)N[C@H](CCCCN)C(=O)N[C@H](CCCCN)C(=O)N[C@H](CC(C)C)C(=O)N[C@H](CC(C)C)C(=O)N[C@H](CCCCN)C(=O)N[C@H](CC(N)=O)C(N)=O)[C@H](C)CC [LTX-D (gallicune-1), ilkaikkllkn] (H-[dI][dL][dK][dA][dI][dK][dK][dL][dL][dK][dN]-NH2)
- MBC (µM) S. enterica (S. enterica): 25 µM (≈ 32 µg/mL)
- MIC (µM) S. enterica (S. enterica): 25 µM (≈ 32 µg/mL)
- MBC (µM) C. farmeri (C. farmeri): 6.25 µM (≈ 8 µg/mL)
- MIC (µM) C. farmeri (C. farmeri): 6.25 µM (≈ 8 µg/mL)
- MBC (µM) E. coli EHEC K88 (E. coli EHEC K88): 50 µM (≈ 64 µg/mL)
- MIC (µM) E. coli EHEC K88 (E. coli EHEC K88): 50 µM (≈ 64 µg/mL)
- MIC (µM) M. smegmatis (M. smegmatis): 25 µM (≈ 32 µg/mL)
- MBC (µM) P. aeruginosa (P. aeruginosa): 1.5 µM (≈ 1.92 µg/mL)
- MIC (µM) P. aeruginosa (P. aeruginosa): 1.5 µM (≈ 1.92 µg/mL)
- MIC PA (P. aeruginosa): 1.5 µM (≈ 1.92 µg/mL)
- MBC (µM) S. flexneri (S. flexneri): 12.5 µM (≈ 16 µg/mL)
- MIC (µM) S. flexneri (S. flexneri): 12.5 µM (≈ 16 µg/mL)
- MBC (µM) B. subtilis (Nisin-resistant) [1]: 6.25 µM (≈ 8 µg/mL)
- MIC (µM) B. subtilis (Nisin-resistant) [1]: 6.25 µM (≈ 8 µg/mL)
- IC50 (MiaPaCa-2): 6.51 µM
- IC50 (PC-3): 33.7 µM
- IC50 (MDA-MB-231): 56.2 µM
- MBC (µM) A. gandavensis (A. gandavensis): 1.5 µM (≈ 1.92 µg/mL)
- MIC (µM) A. gandavensis (A. gandavensis): 1.5 µM (≈ 1.92 µg/mL)
- MBC (µM) P. aeruginosa FQR (P. aeruginosa FQR): 12.5 µM (≈ 16 µg/mL)
- MIC (µM) P. aeruginosa FQR (P. aeruginosa FQR): 6.25 to 12.5 µM
- MBC (µM) V. alginolyticus (V. alginolyticus): 0.78 µM (≈ 0.999 µg/mL)
- MIC (µM) V. alginolyticus (V. alginolyticus): 0.78 µM (≈ 0.999 µg/mL)
- MIC (µM) E. coli (E. coli): 6.25 µM (≈ 8 µg/mL)
- MBC (µM) L. lactis (L. lactis): 1.5 µM (≈ 1.92 µg/mL)
- MIC (µM) L. lactis (L. lactis): 1.5 µM (≈ 1.92 µg/mL)
- MIC (µM) Serum4h (Pseudomonas aeruginosa): 25 µM
- MIC (µM) Chymotrypsin (Pseudomonas aeruginosa): 25 µM
- MIC (µM) Pepsin (Pseudomonas aeruginosa): 25 µM
- MIC (µM) Trypsin (Pseudomonas aeruginosa): 25 µM
- MIC (µM) Serum24h (Pseudomonas aeruginosa): 12.5 µM
- stability to proteases and human serum (Pseudomonas aeruginosa): not affected
- MIC (µM) Control (Pseudomonas aeruginosa): 25 µM
- MBC (µM) H. pylori (H. pylori): 50 µM (≈ 64 µg/mL)
- MIC (µM) H. pylori (H. pylori): 50 µM (≈ 64 µg/mL)
- MBC (µM) C. rodentium (C. rodentium): 25 µM (≈ 32 µg/mL)
- MIC (µM) C. rodentium (C. rodentium): 12.5 µM (≈ 16 µg/mL)
- MBC (µM) P. aeruginosa 01 (P. aeruginosa 01): 25 µM (≈ 32 µg/mL)
- MIC (µM) P. aeruginosa 01 (P. aeruginosa 01): 6.25 µM (≈ 8 µg/mL)
- CC50 at 48 h [2, 3]: 843 µM
- CC50 at 48 h [2, 4]: 869 µM
- CC50 at 48 h [2, 5]: 653 µM

Compound: CC[C@@H](C)[C@@H](N)C(=O)N[C@H](CC(C)C)C(=O)N[C@H](CCCCN)C(=O)N[C@H](C)C(=O)N[C@@H](C(=O)N[C@H](CCCCN)C(=O)N[C@H](CCCCN)C(=O)N[C@H](CC(C)C)C(=O)N[C@H](CC(C)C)C(=O)N[C@H](CCCCN)C(N)=O)[C@H](C)CC [(i1k10*) enantio, ilkaikkllk] (H-[dI][dL][dK][dA][dI][dK][dK][dL][dL][dK]-NH2)
- MBC (µM) S. enterica (S. enterica): 25 µM (≈ 29.2 µg/mL)
- MIC (µM) S. enterica (S. enterica): 50 µM (≈ 58.3 µg/mL)
- MBC (µM) C. farmeri (C. farmeri): 50 µM (≈ 58.3 µg/mL)
- MIC (µM) C. farmeri (C. farmeri): 12.5 µM (≈ 14.6 µg/mL)
- MBC (µM) E. coli EHEC K88 (E. coli EHEC K88): 50 µM (≈ 58.3 µg/mL)
- MIC (µM) E. coli EHEC K88 (E. coli EHEC K88): 50 µM (≈ 58.3 µg/mL)
- MIC (µM) M. smegmatis (M. smegmatis): 6.25 µM (≈ 7.29 µg/mL)
- MBC (µM) P. aeruginosa (P. aeruginosa): 3.12 µM (≈ 3.64 µg/mL)
- MIC (µM) P. aeruginosa (P. aeruginosa): 3.125 µM (≈ 3.65 µg/mL)
- MIC PA (P. aeruginosa): 3.125 µM (≈ 3.65 µg/mL)
- MBC (µM) S. flexneri (S. flexneri): 12.5 µM (≈ 14.6 µg/mL)
- MIC (µM) S. flexneri (S. flexneri): 12.5 µM (≈ 14.6 µg/mL)
- MBC (µM) B. subtilis (Nisin-resistant) [1]: 12.5 µM (≈ 14.6 µg/mL)
- MIC (µM) B. subtilis (Nisin-resistant) [1]: 12.5 µM (≈ 14.6 µg/mL)
- IC50 (MiaPaCa-2): 13.4 µM
- IC50 (PC-3): 39.3 µM
- IC50 (MDA-MB-231): 61.7 µM
- MBC (µM) A. gandavensis (A. gandavensis): 1.5 µM (≈ 1.75 µg/mL)
- MIC (µM) A. gandavensis (A. gandavensis): 1.5 µM (≈ 1.75 µg/mL)
- MBC (µM) P. aeruginosa FQR (P. aeruginosa FQR): 100 µM (≈ 117 µg/mL)
- MIC (µM) P. aeruginosa FQR (P. aeruginosa FQR): 12.5 to 25 µM
- MBC (µM) V. alginolyticus (V. alginolyticus): 1.5 µM (≈ 1.75 µg/mL)
- MIC (µM) V. alginolyticus (V. alginolyticus): 0.78 to 1.56 µM
- MBC (µM) L. lactis (L. lactis): 3.12 µM (≈ 3.64 µg/mL)
- MIC (µM) L. lactis (L. lactis): 1.5 µM (≈ 1.75 µg/mL)
- MIC (µM) Serum4h (Pseudomonas aeruginosa): 1.5 µM
- MIC (µM) Chymotrypsin (Pseudomonas aeruginosa): 1.5 µM
- MIC (µM) Pepsin (Pseudomonas aeruginosa): 1.5 µM
- MIC (µM) Trypsin (Pseudomonas aeruginosa): 1.5 µM
- MIC (µM) Serum24h (Pseudomonas aeruginosa): 0.75 µM
- stability to proteases and human serum (Pseudomonas aeruginosa): not affected
- MIC (µM) Control (Pseudomonas aeruginosa): 1.5 µM
- MBC (µM) H. pylori (H. pylori): 50 µM (≈ 58.3 µg/mL)
- MIC (µM) H. pylori (H. pylori): 50 µM (≈ 58.3 µg/mL)
- MBC (µM) C. rodentium (C. rodentium): 50 µM (≈ 58.3 µg/mL)
- MIC (µM) C. rodentium (C. rodentium): 50 µM (≈ 58.3 µg/mL)
- MBC (µM) P. aeruginosa 01 (P. aeruginosa 01): 50 µM (≈ 58.3 µg/mL)
- MIC (µM) P. aeruginosa 01 (P. aeruginosa 01): 12.5 µM (≈ 14.6 µg/mL)
- CC50 at 48 h [2, 3]: 726 µM
- CC50 at 48 h [2, 4]: 683 µM
- CC50 at 48 h [2, 5]: 365 µM
